Data: article PMC12866986 (European journal of medicinal chemistry, 2026)
Where “and” joins values, the source holds several entries; their conditions need not be identical. Equal entries are not always repeated.

target: FAK (Homo sapiens, UniProt Q05397); conditions: 100 nM; 1 h; relative to vehicle control; n = 8 measurements
Sequence (Q05397 whole entry): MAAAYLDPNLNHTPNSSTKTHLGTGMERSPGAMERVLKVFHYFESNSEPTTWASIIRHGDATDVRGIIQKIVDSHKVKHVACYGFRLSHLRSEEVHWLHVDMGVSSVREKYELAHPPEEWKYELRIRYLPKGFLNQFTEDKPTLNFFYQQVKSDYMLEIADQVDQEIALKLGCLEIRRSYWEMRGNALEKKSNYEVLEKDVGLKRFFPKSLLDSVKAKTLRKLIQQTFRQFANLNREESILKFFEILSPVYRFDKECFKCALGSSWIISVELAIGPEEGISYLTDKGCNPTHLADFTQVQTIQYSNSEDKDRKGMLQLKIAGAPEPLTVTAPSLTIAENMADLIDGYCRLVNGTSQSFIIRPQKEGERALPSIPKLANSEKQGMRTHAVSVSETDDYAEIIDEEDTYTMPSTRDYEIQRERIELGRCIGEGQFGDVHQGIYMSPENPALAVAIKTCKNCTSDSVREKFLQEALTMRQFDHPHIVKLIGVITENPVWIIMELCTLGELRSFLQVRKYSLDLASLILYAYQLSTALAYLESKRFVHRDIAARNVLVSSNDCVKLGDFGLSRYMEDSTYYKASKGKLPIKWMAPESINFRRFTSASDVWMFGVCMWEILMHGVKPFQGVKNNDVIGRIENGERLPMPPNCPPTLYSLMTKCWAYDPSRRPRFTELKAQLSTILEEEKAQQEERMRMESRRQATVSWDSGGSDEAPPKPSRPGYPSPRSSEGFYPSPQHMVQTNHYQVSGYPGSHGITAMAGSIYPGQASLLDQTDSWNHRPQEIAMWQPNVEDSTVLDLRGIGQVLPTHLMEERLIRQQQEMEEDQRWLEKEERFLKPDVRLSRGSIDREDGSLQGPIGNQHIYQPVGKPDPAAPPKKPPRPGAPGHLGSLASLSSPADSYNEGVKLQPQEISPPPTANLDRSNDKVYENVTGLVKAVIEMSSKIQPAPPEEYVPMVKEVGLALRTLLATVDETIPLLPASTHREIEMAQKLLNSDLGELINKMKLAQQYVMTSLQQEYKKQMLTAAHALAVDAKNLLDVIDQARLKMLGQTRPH

| Compound | FAK-Tyr-397/FAK fold change, ± SEM |
| --- | --- |
| CN(C)C(CNC(=O)Nc1cc(C(F)(F)F)ccc1N1CCOCC1)c1ccccn1 (stereo not drawn) [Compound 5c, 1-(2-(Dimethylamino)-2-(pyridin-2-yl)ethyl)-3-(2-morpholino-5-(trifluoromethyl)phenyl)urea] | 0.84±0.11 fold change |
| COC(=O)C(Cc1ccncc1)NC(=O)Nc1cc(C(F)(F)F)ccc1N1CCOCC1 (stereo not drawn) [Compound 9a, Methyl 2-(3-(2-Morpholino-5-(trifluoromethyl)phenyl)ureido)-3-(pyridin-4-yl)propanoate] | 1.03±0.08 fold change |
| COCCOc1ccc(N2CCOCC2)c(NC(=O)NCC(c2ccncc2)N(C)C)c1 (stereo not drawn) [Compound 10j, 1-(2-(Dimethylamino)-2-(pyridin-4-yl)ethyl)-3-(5-(2-methoxyethoxy)-2-morpholinophenyl)urea] | 1.05±0.1 fold change |
| CC(C)(CNC(=O)Nc1cc(C(F)(F)F)ccc1N1CCOCC1)c1ccncc1 [Compound 6, 1-(2-Methyl-2-(pyridin-4-yl)propyl)-3-(2-morpholino-5-(trifluoromethyl)phenyl)urea] | 1.09±0.12 fold change |
| COCCNC(=O)C(Cc1ccncc1)NC(=O)Nc1cc(C(F)(F)F)ccc1N1CCOCC1 (stereo not drawn) [Compound 9b, N-(2-Methoxyethyl)-2-(3-(2-morpholino-5-(trifluoromethyl)phenyl)ureido)-3-(pyridin-4-yl)propanamide] | 0.97±0.08 fold change |
| Cl.O=C(NCCc1ccncc1)Nc1cc(C(F)(F)F)ccc1N1CCOCC1 [Compound 7HCl, 1-(2-Morpholino-5-(trifluoromethyl)phenyl)-3-(2-(pyridin-4-yl)ethyl)urea hydrochloric salt] | 0.91±0.13 fold change |
| CN(C)C(CNC(=O)Nc1cc(C(F)(F)F)ccc1N1CCOCC1)c1cccnc1.Cl (stereo not drawn) [Compound 5bHCl, 1-(2-(Dimethylamino)-2-(pyridin-3-yl)ethyl)-3-(2-morpholino-5-(trifluoromethyl)phenyl)urea hydrochloric salt] | 1.05±0.06 fold change |
| COc1ccc(N2CCOCC2)c(NC(=O)NCC(c2ccncc2)N(C)C)c1 (stereo not drawn) [Compound 10h, 1-(2-(Dimethylamino)-2-(pyridin-4-yl)ethyl)-3-(5-methoxy-2-morpholinophenyl)urea] | 1.29±0.07 fold change |
| CN(C)C(CNC(=O)Nc1cc(F)ccc1N1CCOCC1)c1ccncc1 (stereo not drawn) [Compound 10b, 1-(2-(Dimethylamino)-2-(pyridin-4-yl)ethyl)-3-(5-fluoro-2-morpholinophenyl)urea] | 1.12 fold change and 1.12±0.05 fold change |
| CN(C)C(CNC(=O)Nc1cc(OC(F)(F)F)ccc1N1CCOCC1)c1ccncc1 (stereo not drawn) [Compound 10g, 1-(2-(Dimethylamino)-2-(pyridin-4-yl)ethyl)-3-(2-morpholino-5-(trifluoromethoxy)phenyl)urea] | 1.12±0.03 fold change |
| CN(C)C(CNC(=O)Nc1cc(C#N)ccc1N1CCOCC1)c1ccncc1 (stereo not drawn) [Compound 10d, 1-(5-Cyano-2-morpholinophenyl)-3-(2-(dimethylamino)-2-(pyridin-4-yl)ethyl)urea] | 0.83±0.07 fold change |
| COCCOCCOc1ccc(N2CCOCC2)c(NC(=O)NCC(c2ccncc2)N(C)C)c1 (stereo not drawn) [Compound 10k, 1-(2-(Dimethylamino)-2-(pyridin-4-yl)ethyl)-3-(5-(2-(2-methoxyethoxy)ethoxy)-2-morpholinophenyl)urea] | 1.32±0.03 fold change |
| Cl.O=C(NCCc1cnccn1)Nc1cc(C(F)(F)F)ccc1N1CCOCC1 [Compound 8HCl, 1-(2-Morpholino-5-(trifluoromethyl)phenyl)-3-(2-(pyrazin-2-yl)ethyl)urea hydrochloric salt] | 1.05±0.07 fold change |
| Cc1ccc(N2CCOCC2)c(NC(=O)NCC(c2ccncc2)N(C)C)c1 (stereo not drawn) [Compound 10c, 1-(2-(Dimethylamino)-2-(pyridin-4-yl)ethyl)-3-(5-methyl-2-morpholinophenyl)urea] | 0.89±0.05 fold change |
| CN(C)C(CNC(=O)Nc1cc(C(F)(F)F)ccc1N1CCOCC1)c1ccccn1.Cl (stereo not drawn) [Compound 5cHCl, 1-(2-(Dimethylamino)-2-(pyridin-2-yl)ethyl)-3-(2-morpholino-5-(trifluoromethyl)phenyl)urea hydrochloric salt] | 0.98±0.07 fold change |
| O=C(NCCc1ccncc1)Nc1cc(C(F)(F)F)ccc1N1CCOCC1 [Compound 7, 1-(2-Morpholino-5-(trifluoromethyl)phenyl)-3-(2-(pyridin-4-yl)ethyl)urea] | 0.98±0.07 fold change |
| CN(C)C(CNC(=O)Nc1cc(C(F)(F)F)ccc1N1CCOCC1)c1cccnc1 (stereo not drawn) [Compound 5b, 1-(2-(Dimethylamino)-2-(pyridin-3-yl)ethyl)-3-(2-morpholino-5-(trifluoromethyl)phenyl)urea] | 1.0±0.04 fold change |
| CC(C)(CNC(=O)Nc1cc(C(F)(F)F)ccc1N1CCOCC1)c1ccncc1.Cl [Compound 6HCl, 1-(2-Methyl-2-(pyridin-4-yl)propyl)-3-(2-morpholino-5-(trifluoromethyl)phenyl)urea hydrochloric salt] | 1.11±0.12 fold change |
| CN(C)C(CNC(=O)Nc1ccccc1N1CCOCC1)c1ccncc1 (stereo not drawn) [Compound 10a, 1-(2-(Dimethylamino)-2-(pyridin-4-yl)ethyl)-3-(2-morpholinophenyl)urea] | 1.23±0.07 fold change |
| COCCOCCOCCOc1ccc(N2CCOCC2)c(NC(=O)NCC(c2ccncc2)N(C)C)c1 (stereo not drawn) [Compound 10l, 1-(2-(Dimethylamino)-2-(pyridin-4-yl)ethyl)-3-(5-(2-(2-(2-methoxyethoxy)ethoxy)ethoxy)-2-morpholinophenyl)urea] | 1.13±0.1 fold change |
| CN(C)C(CNC(=O)Nc1cc(C(F)F)ccc1N1CCOCC1)c1ccncc1 (stereo not drawn) [Compound 10f, 1-(5-(Difluoromethyl)-2-morpholinophenyl)-3-(2-(dimethylamino)-2-(pyridin-4-yl)ethyl)urea] | 1.2±0.08 fold change |
| CN(C)C(CNC(=O)Nc1cc(OCCOCCO)ccc1N1CCOCC1)c1ccncc1 (stereo not drawn) [Compound 10m, 1-(2-(Dimethylamino)-2-(pyridin-4-yl)ethyl)-3-(5-(2-(2-hydroxyethoxy)ethoxy)-2-morpholinophenyl)urea] | 0.93±0.1 fold change |
| O=C(NCCc1cnccn1)Nc1cc(C(F)(F)F)ccc1N1CCOCC1 [Compound 8, 1-(2-Morpholino-5-(trifluoromethyl)phenyl)-3-(2-(pyrazin-2-yl)ethyl)urea] | 0.93±0.08 fold change |
| COCOc1ccc(N2CCOCC2)c(NC(=O)NCC(c2ccncc2)N(C)C)c1 (stereo not drawn) [Compound 10i, 1-(2-(Dimethylamino)-2-(pyridin-4-yl)ethyl)-3-(5-(methoxymethoxy)-2-morpholinophenyl)urea] | 1.28±0.1 fold change |
